Test [1] concerns the target NAMPT (human, recombinant, C-terminally His-tagged) (Homo sapiens, UniProt P43490). In words: Time-Resolved Fluorescence Resonance Energy Transfer (TR-FRET) Binding Assay of NAMPT. The settings on record: without substrates; 6.8 nM NAMPT, 200 nM probe, 3 hours equilibration. In a few lines: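 A TR-FRET probe-displacement assay used 6.8 nM His-tagged recombinant human NAMPT, 200 nM Oregon Green 488-labelled nicotinamide-competitive probe and 1 nM Tb-anti-His antibody. Buffer was HEPES pH 7.5 with NaCl, MgCl2, DTT and glycerol, plus 2% DMSO, equilibrated 3 h at room temperature. Em520/Em495 ratios, normalized to controls, gave IC50 by four-parameter logistic fit.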

Another test has as its system PC3 cells. Description: NAMPT Cell Proliferation Assay. It is filed as cell-based. The settings on record: Homo sapiens, PC-3, 120 h, 5 days incubation, cell viability by Cell Titer Glo. A digest of the protocol: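 PC3 cells were plated at 500 cells/well in RPMI with 10% heat-inactivated FBS, left to attach overnight, then given compounds in 10-fold dilutions from 10 μM to 1×10^−5 μM. After 5 days at 37° C and 5% CO2, viability was read by luminescence and IC50s came from sigmoidal fits of percent inhibition.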

The next test concerns the target NAMPT (Homo sapiens, UniProt P43490). In words: TR-FRET Binding Assay of NAMPT with PRPP. The settings on record: with 200 μM PRPP and 2.5 mM ATP; 2 nM NAMPT, 2 nM probe, 16 hours equilibration. In a few lines:
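Human NAMPT (2 nM) with 2 nM probe and 1 nM Tb-anti-His antibody, plus 200 μM PRPP and 2.5 mM ATP, 2% DMSO. TR-FRET read after 16 h equilibration, permitting possible enzymatic modification of test compounds; data processing as for the substrate-free format.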

Where only a bound is given, the exact number is not on record here.

Chain of NAMPT (P43490 whole entry): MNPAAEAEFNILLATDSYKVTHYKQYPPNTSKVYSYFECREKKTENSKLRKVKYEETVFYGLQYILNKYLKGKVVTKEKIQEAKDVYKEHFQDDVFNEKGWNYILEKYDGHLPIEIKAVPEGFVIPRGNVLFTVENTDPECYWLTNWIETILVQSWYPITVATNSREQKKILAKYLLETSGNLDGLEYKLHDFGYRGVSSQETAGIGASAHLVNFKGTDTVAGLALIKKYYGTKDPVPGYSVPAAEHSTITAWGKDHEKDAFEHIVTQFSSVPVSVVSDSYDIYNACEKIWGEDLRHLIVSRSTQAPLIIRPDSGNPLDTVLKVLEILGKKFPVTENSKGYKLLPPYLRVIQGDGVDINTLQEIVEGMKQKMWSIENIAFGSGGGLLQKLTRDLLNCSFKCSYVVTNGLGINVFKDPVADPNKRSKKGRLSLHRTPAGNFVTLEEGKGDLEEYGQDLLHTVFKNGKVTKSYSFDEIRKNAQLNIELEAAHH
Chain of NAMPT (human, recombinant, C-terminally His-tagged) (P43490 whole entry): as above

As to `O=C(NCc1ccn2ccnc2c1)c1ccc(C2(O)CN(C(=O)CC3CCOCC3)C2)s1` [Example 406, 5-[3-hydroxy-1-(tetrahydro-2H-pyran-4-ylacetyl)azetidin-3-yl]-N-(imidazo[1,2-a]pyridin-7-ylmethyl)thiophene-2-carboxamide], the IC50 in test [1] worked out at 1140 nM; in the test on PC3 cells it was 347 nM; at NAMPT, 0.505 nM.

As to `CC(C)(C)OC(=O)N1CCC(c2ccc(C(=O)NCc3ccn4ccnc4c3)cc2)CC1` [Example 217, tert-butyl 4-{4-[(imidazo[1,2-a]pyridin-7-ylmethyl)carbamoyl]phenyl}piperidine-1-carboxylate], the IC50 was 220 nM in test [1], 3.42 nM with PC3 cells and 0.2 nM at NAMPT.

Consider `O=C(NCc1ccn2ccnc2c1)c1ccc(C2CCN(C(=O)C3CCC(F)(F)CC3)CC2)cc1` [Example 441, 4-{1-[(4,4-difluorocyclohexyl)carbonyl]piperidin-4-yl}-N-(imidazo[1,2-a]pyridin-7-ylmethyl)benzamide], for which the IC50 was found to be 338 nM in test [1], 7.2 nM in the test with PC3 cells and 0.324 nM at NAMPT.

Take `CC(C)(C)OC(=O)N1CC(Oc2ccc(C(=O)NCc3ccn4ccnc4c3)cc2)C1` [Example 474, tert-butyl 3-{4-[(imidazo[1,2-a]pyridin-7-ylmethyl)carbamoyl]phenoxyl}azetidine-1-carboxylate]: the IC50 came to 1980 nM in test [1], 879 nM in the test on PC3 cells and 0.362 nM on NAMPT.

Consider `O=C(CC1CCCC1)Nc1ccc(C(=O)NCc2ccn3ccnc3c2)cc1F` [Example 305, 4-[(cyclopentylacetyl)amino]-3-fluoro-N-(imidazo[1,2-a]pyridin-7-ylmethyl)benzamide], for which the values for the IC50 (in test [1]; in the test on PC3 cells; at NAMPT) were 494 nM, 1170 nM and 0.449 nM, respectively.

For the compound `O=C(NCc1ccn2ccnc2c1)c1ccc(C2=CCN(C(=O)c3ccccc3)CC2)o1` [Example 746, 5-(1-benzoyl-1,2,3,6-tetrahydropyridin-4-yl)-N-(imidazo[1,2-a]pyridin-7-ylmethyl)furan-2-carboxamide], the IC50 was determined as 795 nM in test [1], 116 nM with PC3 cells and 0.839 nM at NAMPT.

In the case of `O=C(CN1CCOCC1)Nc1ccc(C(=O)NCc2ccc3nccn3c2)cc1` [Example 80, N-(imidazo[1,2-a]pyridin-6-ylmethyl)-4-[(morpholin-4-ylacetyl)amino]benzamide], the IC50 came to 228 nM in test [1], 19.4 nM with PC3 cells and 5.71 nM on NAMPT.

Take `O=C(NCc1ccn2ccnc2c1)c1ccc(C2CCN(C(=O)CC(F)(F)F)CC2)s1` [Example 572, N-(imidazo[1,2-a]pyridin-7-ylmethyl)-5-[1-(3,3,3-trifluoropropanoyl)piperidin-4-yl]thiophene-2-carboxamide]: the values for the IC50 (in test [1]; with PC3 cells; at NAMPT) were 51.6 nM, 6.66 nM and 0.403 nM, respectively.

`CC(C)Cn1cc(-c2ccc(C(=O)NCc3ccc4nccn4c3)o2)cn1` [Example 120, N-(imidazo[1,2-a]pyridin-6-ylmethyl)-5-[1-(2-methylpropyl)-1H-pyrazol-4-yl]furan-2-carboxamide]: the figures for the IC50 (in test [1]; in the test on PC3 cells; at NAMPT) were 73.9 nM, 90.8 nM and 0.367 nM, respectively.

Take `O=C(NCc1ccc2nccn2c1)c1ccc(-c2cnn(CC3CCOC3)c2)s1` (stereo not drawn) [Example 200, N-(imidazo[1,2-a]pyridin-6-ylmethyl)-5-[1-(tetrahydrofuran-3-ylmethyl)-1H-pyrazol-4-yl]thiophene-2-carboxamide]: the IC50 amounted to 63 nM in test [1], 5.72 nM with PC3 cells and 0.482 nM at NAMPT.

Consider `O=C(NCc1ccn2ccnc2c1)c1ccc(C2CCN(C(=O)c3cccc(F)c3)CC2)cc1` [Example 516, 4-[1-(3-fluorobenzoyl)piperidin-4-yl]-N-(imidazo[1,2-a]pyridin-7-ylmethyl)benzamide], for which the IC50 in test [1] is 117 nM; in the test on PC3 cells, 21.3 nM; on NAMPT, 0.266 nM.

With `CC(C)CC(=O)N1CCC(O)(c2ccc(C(=O)NCc3ccn4ccnc4c3)s2)CC1` [Example 553, 5-[4-hydroxy-1-(3-methylbutanoyl)piperidin-4-yl]-N-(imidazo[1,2-a]pyridin-7-ylmethyl)thiophene-2-carboxamide], the IC50 in test [1] stood at 478 nM; in the test on PC3 cells, 103 nM; on NAMPT it was 0.592 nM.

For the compound `CC[C@H](C)C(=O)N1CCC(Oc2ccc(C(=O)NCc3ccn4ccnc4c3)cc2)CC1` [Example 413, N-(imidazo[1,2-a]pyridin-7-ylmethyl)-4-({1-[(2S)-2-methylbutanoyl]piperidin-4-yl}oxy)benzamide], the IC50 in test [1] stood at 805 nM; in the test with PC3 cells, 190 nM; at NAMPT it was 0.279 nM.

In the case of `O=C(NCc1ccn2ccnc2c1)c1ccc(-c2cnn(C3CCS(=O)(=O)C3)c2)s1` (stereo not drawn) [Example 296, 5-[1-(1,1-dioxidotetrahydrothiophen-3-yl)-1H-pyrazol-4-yl]-N-(imidazo[1,2-a]pyridin-7-ylmethyl)thiophene-2-carboxamide], the IC50 in test [1] was 67 nM; in the test on PC3 cells, 11.5 nM; on NAMPT it was 0.226 nM.

In the case of `COCC(C)C(=O)N1CCC(Oc2ccc(C(=O)NCc3ccc4nccn4c3)cc2)CC1` (stereo not drawn) [Example 169, N-(imidazo[1,2-a]pyridin-6-ylmethyl)-4-{[1-(3-methoxy-2-methylpropanoyl)piperidin-4-yl]oxy}benzamide], the IC50 was determined as 375 nM in test [1], 26.9 nM in the test with PC3 cells and 4.25 nM at NAMPT.

In the case of `O=C(NCc1ccc2nccn2c1)c1cnc(N2CCc3ccccc3C2)s1` [Example 108, 2-(3,4-dihydroisoquinolin-2(1H)-yl)-N-(imidazo[1,2-a]pyridin-6-ylmethyl)-1,3-thiazole-5-carboxamide], the values for the IC50 (in test [1]; with PC3 cells; on NAMPT) were 1770 nM, 7660 nM and 1.05 nM, respectively.

For the compound `O=C(NCc1ccc2nccn2c1)c1cnc(N2CCC(c3ccccc3)C2)s1` (stereo not drawn) [Example 86, N-(imidazo[1,2-a]pyridin-6-ylmethyl)-2-(3-phenylpyrrolidin-1-yl)-1,3-thiazole-5-carboxamide], the values for the IC50 (in test [1]; in the test on PC3 cells; at NAMPT) were 2040 nM, 5720 nM and 11.9 nM, respectively.

With `COCCn1cc(-c2ccc(NC(=O)NCc3ccn4ccnc4c3)cc2)cn1` [Example 673, 1-(imidazo[1,2-a]pyridin-7-ylmethyl)-3-{4-[1-(2-methoxyethyl)-1H-pyrazol-4-yl]phenyl}urea], the IC50 was 452 nM in test [1], 122 nM in the test on PC3 cells and 0.697 nM at NAMPT.

In the case of `O=C(NCc1ccn2ccnc2c1)c1ccc(O[C@H]2CCN(C(=O)[C@@H]3CCCO3)C2)cc1` [Example 341, N-(imidazo[1,2-a]pyridin-7-ylmethyl)-4-({(3S)-1-[(2S)-tetrahydrofuran-2-ylcarbonyl]pyrrolidin-3-yl}oxy)benzamide], the IC50 in test [1] was greater than 10000 nM; with PC3 cells it was 8300 nM; at NAMPT, 0.719 nM.

As to `CC[C@H](C)C(=O)N1CC(c2ccc(C(=O)NCc3ccn4ccnc4c3)cc2)C1` [Example 547, N-(imidazo[1,2-a]pyridin-7-ylmethyl)-4-{1-[(2S)-2-methylbutanoyl]azetidin-3-yl}benzamide], the values for the IC50 (in test [1]; in the test on PC3 cells; at NAMPT) were 498 nM, 25.6 nM and 0.423 nM, respectively.

Regarding `COCCOCC(=O)N1CCC(CCCCNC(=O)Nc2ccc3nccn3c2)CC1` [Example 70, 1-imidazo[1,2-a]pyridin-6-yl-3-(4-{1-[(2-methoxyethoxy)acetyl]piperidin-4-yl}butyl)urea], the half-maximal inhibitory concentration (IC50) turned out to be 710 nM in test [1], 27.8 nM with PC3 cells and 0.616 nM at NAMPT.

In the case of `CC1(Cn2cc(-c3ccc(C(=O)NCc4ccn5ccnc5c4)o3)cn2)CCOCC1` [Example 734, N-(imidazo[1,2-a]pyridin-7-ylmethyl)-5-{1-[(4-methyltetrahydro-2H-pyran-4-yl)methyl]-1H-pyrazol-4-yl}furan-2-carboxamide], the IC50 in test [1] was determined as 14.2 nM; in the test with PC3 cells it was 0.553 nM; on NAMPT, 0.605 nM.

Take `O=C(NCc1ccn2ccnc2c1)c1ccc(C2CCN(C(=O)C3CCCCC3)CC2)cc1` [Example 502, 4-[1-(cyclohexylcarbonyl)piperidin-4-yl]-N-(imidazo[1,2-a]pyridin-7-ylmethyl)benzamide]: the half-inhibitory concentration (IC50) in test [1] stood at 169 nM; with PC3 cells it was 16.5 nM; at NAMPT, 0.385 nM.

Turning to `CC(C)OC[C@H]1CN(c2ncc(C(=O)NCc3ccn4ccnc4c3)s2)C(=O)O1` [Example 256, N-(imidazo[1,2-a]pyridin-7-ylmethyl)-2-{(5R)-2-oxo-5-[(propan-2-yloxy)methyl]-1,3-oxazolidin-3-yl}-1,3-thiazole-5-carboxamide], the results for the IC50 (in test [1]; in the test with PC3 cells; at NAMPT) were 126 nM, 9.84 nM and 0.266 nM, respectively.

In the case of `O=C(NCc1ccn2ccnc2c1)c1ccc(C2CN(C(=O)c3ccsc3)C2)cc1` [Example 668, N-(imidazo[1,2-a]pyridin-7-ylmethyl)-4-[1-(thiophen-3-ylcarbonyl)azetidin-3-yl]benzamide], the IC50 in test [1] was 263 nM; with PC3 cells, 80.3 nM; at NAMPT, 1.1 nM.

Values taken from patent US9187472B2 (AbbVie Inc., priority 2012, dated 2015).
